Source: patent publication US20140045895A1, “PHARMACEUTICAL DEPOT FOR 5-FLUORO-2-[[(1S)-1-(5-FLUORO-2-PYRIDYL)ETHYL]AMINO]-6-[(5-ISOPROPOXY-1H-PYRAZOL-3-YL)AMINO]PYRIDINE-3-CARBONITRILE” (ASTRAZENECA AB, priority 2010, published 2014)

Assays:
[1] = Hydrolytic stability of PA in the acidic microclimate created by polymer degradation; format: physicochemical
[2] = Plasma levels after intra-articular injection of 50/50 PLGA formulation; format: in vivo, rats; conditions: 200 μg dose in 50/50 PLGA IA formulation into knees, rat plasma
Description: Animals were anaesthetised with isofluorane and 30 μl PLGA microspheres containing 200 μg injected into each knee using a Hamilton syringe and 25G needle. The vial of microspheres was vortexed before injection of each animal to try and obtain a homogeneous injection solution. Animals were recovered and returned to their home cages until plasma sampling.
Animals were warmed in a hot box for 10 minutes at 42° C. before being placed in a restrainer and 200 μl blood sampled from the lateral tail vein into a Sarsted Multivette 600 Lithium Heparin tube (cat no 15.1673) attached to a 21G needle. Tubes were placed on a roller until centrifugation at 13000 rpm for 5 minutes to sediment red blood cells. Plasma was decanted and stored at −20° C. until analysis by DMPK. Samples were taken 1 h, 3 h, 6 h, 24 h, 48 h, 96 h and 168 h post-injection.
The levels shown are for a 200 μg dose of compound.

CC(C)Oc1cc(Nc2nc(N[C@@H](C)c3ccc(F)cn3)c(C#N)cc2F)n[nH]1 [PA, 5-fluoro-2-[[(1S)-1-(5-fluoro-2-pyridyl)ethyl]amino]-6-[(5-isopropoxy-1H-pyrazol-3-yl)amino]pyridine-3-carbonitrile]
hydrolytic stability in acidic microclimate [1]: hydrolytically stable | period over which release of compound was seen (plasma) [2]: 168 h
